Data set [1] deals with T1, VPAC2 receptor (Homo sapiens, UniProt P41587).
T1 construct: The human T-lymphoid cell line Sup-Ti, which expresses the VPAC2 receptor; host or cells: Sup-T1 (Sup-Ti [sic]) human T-lymphoid cell line
T1 sequence (P41587 24-438): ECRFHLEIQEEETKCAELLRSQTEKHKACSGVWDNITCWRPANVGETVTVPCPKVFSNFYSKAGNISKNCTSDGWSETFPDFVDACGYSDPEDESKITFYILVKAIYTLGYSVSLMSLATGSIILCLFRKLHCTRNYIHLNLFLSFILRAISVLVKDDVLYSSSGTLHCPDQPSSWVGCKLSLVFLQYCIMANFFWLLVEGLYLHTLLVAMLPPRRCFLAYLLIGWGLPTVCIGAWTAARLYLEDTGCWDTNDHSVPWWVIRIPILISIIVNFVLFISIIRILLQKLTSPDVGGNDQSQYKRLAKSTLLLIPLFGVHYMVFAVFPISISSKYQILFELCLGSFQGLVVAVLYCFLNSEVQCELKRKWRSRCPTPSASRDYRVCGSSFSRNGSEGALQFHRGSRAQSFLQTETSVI
Description: Sup-T1 cAMP agonist assay. Format: cell-based. The protocol:
The human T-lymphoid cell line Sup-Ti, which expresses the VPAC2 receptor, was obtained from the American Type Culture Collection (ATCC, CRL-1942) and maintained in growth medium at densities between 0.2 and 2×10^6 cells/ml in a 37° C. CO2 incubator. The growth medium was RPMI 1640 (Invitrogen) supplemented with 25 mM HEPES buffer and 10% fetal bovine serum (Gemini Bioproducts).
To evaluate VPAC2 agonist compound activity, cells in log-phase growth were washed once with growth medium at room temperature and plated into 96-well plates at a density of 4×10^4 cells per well in 150 uL of growth medium. Fifty uL of the compounds to be tested, prepared at appropriate concentrations in growth medium, were then added to designated wells. After 5 min at room temperature, the cells were lysed by adding 25 uL of lysis reagent 1A (cAMP Biotrak EIA system, Amersham Biosciences, RPN225) to each well. The 96-well plates were kept at room temperature for 10 min with shaking and then stored at 4° C. until analysis for cAMP (within 2 hr).
Cyclic AMP levels were determined in 100 uL of each lysate using the cAMP Biotrak Enzymeimmunoassay (EIA) kit according to the manufacture's instructions (Amersham Biosciences, RPN225). The activity of each VPAC2 agonist compound (EC50 value) was estimated by fitting the 7-concentration dose response data to a sigmoidal dose-response equation provided by the GraphPad Prism program (GraphPad Software, Inc.).

The target of data set [2] is T2, human neutrophil elastase (Homo sapiens, UniProt P08246).
T2 sequence (P08246 30-247 limits assumed): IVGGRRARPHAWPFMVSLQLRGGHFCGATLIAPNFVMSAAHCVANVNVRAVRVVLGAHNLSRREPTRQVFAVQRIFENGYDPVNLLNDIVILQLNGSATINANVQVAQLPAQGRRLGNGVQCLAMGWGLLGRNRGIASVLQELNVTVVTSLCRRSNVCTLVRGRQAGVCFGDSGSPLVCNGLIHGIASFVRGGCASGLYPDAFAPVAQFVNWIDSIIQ
Description: Peptide stability to neutrophil elastase (RP HPLC ESI MS). The note with it: halftime with human neutrophil elastase 1 to 2 μg/mL in PBS, ambient temperature, normalized to halftime of the reference standard.
Description: The proteolytic stabilities of peptide analogs were established with reversed phase high pressure liquid chromatography (RP HPLC) electrospray ionization mass spectrometry (ESI MS). Peptide analogs were incubated with human neutrophile elastase and the quantity of undigested analogs was determined by ESI MS at appropriate time points. Multiple peptide analogs could be included in one experiment as long as they could be differentiated by HPLC retention time and/or by molecular weight. Ac-His Ac-[sequence]Nle-[sequence]NH2 was used in all experiments as a control and as a reference standard. The simultaneous use of multiple peptide analogs together with a reference standard allowed for compensation for variations in the proteolytic fidelity of the enzyme over the multiple experiments. Integrated ion currents obtained for the individual undigested peptide were used for quantitation. For calculation of halftime first-order kinetic behavior was assumed and all calculations were normalized to the halftime of the reference standard.
Peptide stock solutions were prepared in water to a concentration of 2.5 mg/mL. Unless in use, all stock solutions were kept at −20° C. […] Concentrations of the peptide analogs were adjusted accordingly. In order to do the proteolytic digestion, peptides were dissolved in phosphate buffered saline (PBS) to a concentration of 0.1 mg/mL. As many as six different peptide analogs were mixed into one 50 μL reaction volume. The reference standard was added to all experiments as a reference and internal standard. Elastase (Human Neutrophil, Calbiochem, Cat # 324681) was added from an elastase stock solution to a concentration of 1 to 2 μg/mL. Different amounts of the enzyme were chosen to compensate for the differences in the proteolytic stabilities of the peptide analogs. Previously, a stock solution of elastase was prepared in water at a concentration of 1 mg/mL. Small aliquots of the enzyme stock solution were kept at −20° C. to better maintain the enzyme activity by limiting the number of thaw and freeze cycles.
The digestion was done at ambient temperature in an autosampler tube within the autosampler of the HPLC system (Agilent 1100 Series). For a time course, 5 μL aliquots were injected in 70 minute intervals onto the reversed phase HPLC column (Phenomenex, Luna C18, 3μ, 100 ↑, 150×2.00 mm). For the starting time point an aliquot was injected just prior to the addition of the proteolytic enzyme. A total of eight time points could be recorded from one experiment, including the starting point. Peptides were separated on the reversed phase column with a 50 minute gradient of 5% to 30% organic phase. The aqueous phase was 0.05% (v/v) of trifluoroacetic acid in water and the organic one was 0.045% (v/v) of trifluoroacetic acid in acetonitrile. Absorbances were recorded at 214 and 280 nm respectively. All of the column effluent was introduced into the turbo V source of the electrospray ionization mass spectrometer (ABI 4000 QTrap LC/MS/MS System). Mass spectra were acquired in Q3MS mode in a mass range to include all triply charged ions of the non degraded peptide analogs. Care was taken to assure that peptide analogs could clearly be differentiated either by the chromatographic retention time or by the difference in molecular weight. Relative quantities of the respective undigested peptide analog were calculated from the integrated total ion current. A window of 2.5 Da was chosen and the manufacturer's software was used to integrate the individual ion currents. The overall halftime of an individual peptide analog was calculated by assuming first-order kinetic behavior and was normalized with respect to the halftime of the reference standard.

[3] abbreviates: human T-lymphoid cell line Sup-T1 expressing VPAC2 receptor, cAMP EIA, 5 min at room temperature, read-out: Sup-T1 cAMP EC50.

Structures are written as SMILES. Like-named read-outs stand apart in the source and are kept apart here. Bridge positions count the residues as written; N and C are the ends. Square brackets hold non-standard residues; d marks the D form. Peptide text beside a SMILES is read from it. ξ: configuration not given here. Thr(3ξ) = CC(O)[C@H](N)C(=O)O; Nle = CCCC[C@H](N)C(=O)O

Usually EC50 stands for the midpoint of the concentration-response curve.

Regarding `CCCC[C@H](NC(=O)[C@H](CCC(N)=O)NC(=O)[C@H](CCCCN)NC(=O)[C@H](CCCNC(=N)N)NC(=O)[C@H](CC(C)C)NC(=O)[C@H](CCCCN)NC(=O)[C@@H](NC(=O)[C@H](Cc1ccc(O)cc1)NC(=O)[C@H](CC(N)=O)NC(=O)[C@H](CCC(=O)O)NC(=O)[C@@H](NC(=O)[C@H](Cc1ccccc1)NC(=O)[C@H](CC(=O)O)NC(=O)[C@H](C)NC(=O)[C@H](CC(=O)O)NC(=O)[C@H](CO)NC(=O)[C@H](Cc1c[nH]cn1)NC(C)=O)C(C)O)C(C)O)C(=O)N[C@@H](C)C(=O)N[C@@H](C)C(=O)N[C@@H](CCCCN)C(=O)N[C@H]1CCCCNC(=O)C[C@@H](C(=O)N[C@@H](CC(C)C)C(=O)N[C@@H](CCCCN)C(=O)N[C@@H](CCCCN)C(=O)NCC(=O)NCC(=O)N[C@H](C(N)=O)C(C)O)NC(=O)[C@H](CC(N)=O)NC(=O)[C@H](CC(C)C)NC(=O)[C@H](Cc2ccc(O)cc2)NC1=O` (stereo partly shown) [Example 3] (Ac-HSDADF[Thr(3ξ)]ENY[Thr(3ξ)]KLRKQ[Nle]AAKKYLNDLKKGG[Thr(3ξ)]-NH2; lactam 21-25), the EC50 in data set [1] (setting [3]) is 98 nM. The Relative elastase stability in data set [2] was found to be 4.5.

With `CCCC[C@H](NC(=O)[C@H](CCC(N)=O)NC(=O)[C@H](CCCCN)NC(=O)[C@H](CCCNC(=N)N)NC(=O)[C@H](CC(C)C)NC(=O)[C@H](CCCCN)NC(=O)[C@@H](NC(=O)[C@H](Cc1ccc(O)cc1)NC(=O)[C@H](CC(N)=O)NC(=O)[C@H](CCC(=O)O)NC(=O)[C@@H](NC(=O)[C@H](Cc1ccccc1)NC(=O)[C@H](CCC(N)=O)NC(=O)[C@H](C)NC(=O)[C@H](CC(=O)O)NC(=O)[C@H](CO)NC(=O)[C@H](Cc1c[nH]cn1)NC(C)=O)C(C)O)C(C)O)C(=O)N[C@@H](C)C(=O)N[C@@H](C)C(=O)N[C@@H](CCCCN)C(=O)N[C@H]1CCCCNC(=O)C[C@@H](C(=O)N[C@@H](CC(C)C)C(=O)N[C@@H](CCCCN)C(=O)N[C@@H](CCCCN)C(=O)NCC(=O)NCC(=O)N[C@H](C(N)=O)C(C)O)NC(=O)[C@H](CC(N)=O)NC(=O)[C@H](CC(C)C)NC(=O)[C@H](Cc2ccc(O)cc2)NC1=O` (stereo partly shown) [Example 4] (Ac-HSDAQF[Thr(3ξ)]ENY[Thr(3ξ)]KLRKQ[Nle]AAKKYLNDLKKGG[Thr(3ξ)]-NH2; lactam 21-25), the 50% effective concentration (EC50) in data set [1] (setting [3]) stood at 85 nM. The Relative elastase stability in data set [2] is on record as 3.9.

As for `CCCC[C@H](NC(=O)[C@H](CCC(N)=O)NC(=O)[C@H](CCCCN)NC(=O)[C@H](CCCNC(=N)N)NC(=O)[C@H](CC(C)C)NC(=O)[C@H](CCCCN)NC(=O)[C@@H](NC(=O)[C@H](Cc1ccc(O)cc1)NC(=O)[C@H](CC(N)=O)NC(=O)[C@H](CCC(=O)O)NC(=O)[C@@H](NC(=O)[C@H](Cc1ccccc1)NC(=O)[C@@H]1CCCN1C(=O)[C@H](C)NC(=O)[C@H](CC(=O)O)NC(=O)[C@H](CO)NC(=O)[C@H](Cc1c[nH]cn1)NC(C)=O)C(C)O)C(C)O)C(=O)N[C@@H](C)C(=O)N[C@@H](C)C(=O)N[C@@H](CCCCN)C(=O)N[C@H]1CCCCNC(=O)C[C@@H](C(=O)N[C@@H](CC(C)C)C(=O)N[C@@H](CCCCN)C(=O)N[C@@H](CCCCN)C(=O)NCC(=O)NCC(=O)N[C@H](C(N)=O)C(C)O)NC(=O)[C@H](CC(N)=O)NC(=O)[C@H](CC(C)C)NC(=O)[C@H](Cc2ccc(O)cc2)NC1=O` (stereo partly shown) [Example 5] (Ac-HSDAPF[Thr(3ξ)]ENY[Thr(3ξ)]KLRKQ[Nle]AAKKYLNDLKKGG[Thr(3ξ)]-NH2; lactam 21-25), the EC50 in data set [1] (setting [3]) came out at 1210 nM. For the same compound, the Relative elastase stability in data set [2] was determined as 4.9.

For the compound `CCCC[C@H](NC(=O)[C@H](CCCNC(=N)N)NC(=O)[C@H](CCCCN)NC(=O)[C@H](CCCNC(=N)N)NC(=O)[C@H](CC(C)C)NC(=O)[C@H](CCCCN)NC(=O)[C@@H](NC(=O)[C@H](Cc1ccc(O)cc1)NC(=O)[C@H](CC(N)=O)NC(=O)[C@H](CCC(=O)O)NC(=O)[C@@H](NC(=O)[C@H](Cc1ccccc1)NC(=O)[C@H](CO)NC(=O)[C@H](C)NC(=O)[C@H](CC(=O)O)NC(=O)[C@H](CO)NC(=O)[C@H](Cc1c[nH]cn1)NC(C)=O)[C@@H](C)O)[C@@H](C)O)C(=O)N[C@@H](C)C(=O)N[C@@H](C)C(=O)N[C@@H](CCCCN)C(=O)N[C@H]1CCCCNC(=O)C[C@@H](C(=O)N[C@@H](CC(C)C)C(=O)N[C@@H](CC(C)C)C(=O)N[C@@H](CC(N)=O)C(=O)NCC(=O)NCC(=O)N[C@H](C(N)=O)[C@@H](C)O)NC(=O)[C@H](CC(N)=O)NC(=O)[C@H](CC(C)C)NC(=O)[C@H](Cc2ccc(O)cc2)NC1=O` [Example 14] (Ac-HSDASFTENYTKLRKR[Nle]AAKKYLNDLLNGGT-NH2; lactam 21-25), a half-maximal response in data set [1] (EC50) required 94.1 nM. The compound further showed a Relative elastase stability in data set [2] of 4.5.

Take `CCCC[C@H](NC(=O)[C@H](CCCNC(=N)N)NC(=O)[C@H](CCCCN)NC(=O)[C@H](CCCNC(=N)N)NC(=O)[C@H](CC(C)C)NC(=O)[C@H](CCCCN)NC(=O)[C@@H](NC(=O)[C@H](Cc1ccc(O)cc1)NC(=O)[C@H](CC(N)=O)NC(=O)[C@H](CCC(=O)O)NC(=O)[C@@H](NC(=O)[C@H](Cc1ccccc1)NC(=O)[C@H](CO)NC(=O)[C@H](C)NC(=O)[C@H](CC(=O)O)NC(=O)[C@H](CO)NC(=O)[C@H](Cc1c[nH]cn1)NC(C)=O)C(C)O)C(C)O)C(=O)N[C@@H](CCCCN)C(=O)N[C@@H](C)C(=O)N[C@@H](CCCCN)C(=O)N[C@H]1CCCCNC(=O)C[C@@H](C(=O)N[C@@H](CC(C)C)C(=O)N[C@@H](CCCCN)C(=O)N[C@@H](CCCCN)C(=O)NCC(=O)NCC(=O)N[C@H](C(N)=O)C(C)O)NC(=O)[C@H](CC(N)=O)NC(=O)[C@H](CC(C)C)NC(=O)[C@H](Cc2ccc(O)cc2)NC1=O` (stereo partly shown) [Example 16] (Ac-HSDASF[Thr(3ξ)]ENY[Thr(3ξ)]KLRKR[Nle]KAKKYLNDLKKGG[Thr(3ξ)]-NH2; lactam 21-25): the EC50 in data set [1] (setting [3]) was 1030 nM. For the same compound, the Relative elastase stability in data set [2] stood at 4.4.

Values taken from patent US20080096807A1, “Cyclic vasoactive intestinal peptide receptor-2 agonists” (priority 2006, published 2008).
